# Data from patent publication US20250304576A1 (Cancer Research Technology Limited, priority 2022, published 2025).
# Target: T1, Recombinant IKKα (Homo sapiens, UniProt O15111)
# T1 construct: purchased Millipore, Dundee, UK
# T1 sequence (O15111 1-745): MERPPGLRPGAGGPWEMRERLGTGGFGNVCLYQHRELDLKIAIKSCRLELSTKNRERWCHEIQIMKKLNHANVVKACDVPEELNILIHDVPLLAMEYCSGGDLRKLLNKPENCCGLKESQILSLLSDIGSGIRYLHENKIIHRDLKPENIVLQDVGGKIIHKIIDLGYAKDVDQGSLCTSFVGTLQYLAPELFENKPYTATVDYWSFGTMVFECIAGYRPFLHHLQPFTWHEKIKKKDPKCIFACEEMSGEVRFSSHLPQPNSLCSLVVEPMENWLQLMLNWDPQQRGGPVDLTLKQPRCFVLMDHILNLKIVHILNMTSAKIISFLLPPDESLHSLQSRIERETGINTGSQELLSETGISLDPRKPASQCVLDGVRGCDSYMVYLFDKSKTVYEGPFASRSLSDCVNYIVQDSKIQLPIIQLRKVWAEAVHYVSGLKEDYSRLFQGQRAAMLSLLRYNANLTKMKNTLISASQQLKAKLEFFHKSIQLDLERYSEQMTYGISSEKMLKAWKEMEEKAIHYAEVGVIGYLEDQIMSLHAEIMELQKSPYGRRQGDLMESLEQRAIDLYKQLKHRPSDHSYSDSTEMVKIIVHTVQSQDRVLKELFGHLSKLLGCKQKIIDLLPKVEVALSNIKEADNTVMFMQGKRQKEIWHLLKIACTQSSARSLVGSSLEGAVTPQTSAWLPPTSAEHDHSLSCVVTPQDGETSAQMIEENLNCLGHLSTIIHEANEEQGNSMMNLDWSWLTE
# Experiment: DELFIA IKKα kinase assay (apparent Ki, Cheng-Prusoff)
# Format: biochemical
# Details: DELFIA assay (first line of an example)
# In short: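 Recombinant IKKα or IKKβ (37 nM) with 0.375 μM biotinylated IκB-α (Ser32) peptide and 40 μM ATP in 40 mM Tris-HCl pH 7.5, 20 mM MgCl2, 60 min at 30° C. Phospho-substrate captured on streptavidin and detected by anti-phospho-IκB-α plus europium anti-mouse IgG time-resolved fluorescence; apparent Ki via Cheng-Prusoff.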
row,SMILES,Ki [nM]
1,"Nc1n[nH]c2ccc(-c3ccnc4[nH]c(CN5CCCCC5)cc34)cc12 [Example 260, 5-(2-(Piperidin-1-ylmethyl)-1H-pyrrolo[2,3-b]pyridine-4-yl)-1H-indazol-3-amine]",91
2,"Nc1n[nH]c2ccc(-c3ccnc4[nH]c(C5CC5)cc34)cc12 [Example 218, 5-(2-Cyclopropyl-1H-pyrrolo[2,3-b]pyridin-4-yl)-1H-indazol-3-amine]",5
3,"CN1CCN(C(=O)c2cc3c(-c4ccc5[nH]nc(N)c5c4)ccnc3[nH]2)CC1 [Example 243, (4-(3-Amino-1H-indazol-5-yl)-1H-pyrrolo[2,3-b]pyridin-2-yl)(4-methylpiperazin-1-yl)methanone]",72
4,"CN(C)CCCNCc1cc2c(-c3ccc4[nH]nc(N)c4c3)ccnc2[nH]1 [Example 258, N^1-((4-(3-amino-1H-indazol-5-yl)-1H-pyrrolo[2,3-b]pyridin-2-yl)methyl)-N^3,N^3-dimethylpropane-1,3-diamine]",16
5,"Nc1n[nH]c2ccc(-c3ccnc4[nH]c(CCN5CCOCC5)cc34)cc12 [Example 268, 5-(2-(2-Morpholinoethyl)-1H-pyrrolo[2,3-b]pyridin-4-yl)-1H-indazol-3-amine]",11
6,"Nc1n[nH]c2ccc(-c3ccnc4[nH]c(CN5CCOCC5)cc34)cc12 [Example 262, 5-(2-(Morpholinomethyl)-1H-pyrrolo[2,3-b]pyridine-4-yl)-1H-indazol-3-amine]",22
7,"Nc1n[nH]c2ccc(-c3ccnc4[nH]c(CC5CCNCC5)cc34)cc12 [Example 272, 5-(2-(Piperidin-4-ylmethyl)-1H-pyrrolo[2,3-b]pyridin-4-yl)-1H-indazol-3-amine]",5
8,"Nc1n[nH]c2c(C#CCCCN3CCOCC3)cc(-c3ccnc4[nH]ccc34)cc12 [Example 210, 7-(5-Morpholinopent-1-yn-1-yl)-5-(1H-pyrrolo[2,3-b]pyridin-4-yl)-1H-indazol-3-amine]",23
9,"C#Cc1cc(-c2ccnc3[nH]ccc23)cc2c(N)n[nH]c12 [Example 200, 7-Ethynyl-5-(1H-pyrrolo[2,3-b]pyridin-4-yl)-1H-indazol-3-amine]",26
10,"CN1CCN(Cc2cc3c(-c4ccc5[nH]nc(N)c5c4)ccnc3[nH]2)CC1 [Example 263, 5-(2-((4-Methylpiperazin-1-yl)methyl)-1H-pyrrolo[2,3-b]pyridine-4-yl)-1H-indazol-3-amine]",62
11,"CC(C)(C)OCc1cc2c(-c3ccc4[nH]nc(N)c4c3)ccnc2[nH]1 [Example 227, 5-(2-(tert-Butoxymethyl)-1H-pyrrolo[2,3-b]pyridin-4-yl)-1H-indazol-3-amine]",29
12,"Nc1n[nH]c2c(C#CC3CCCC3)cc(-c3ccnc4[nH]ccc34)cc12 [Example 203, 7-(Cyclopentylethynyl)-5-(1H-pyrrolo[2,3-b]pyridin-4-yl)-1H-indazol-3-amine]",26
13,"Nc1n[nH]c2ccc(-c3ccnc4[nH]c(CNC5CCCCC5)cc34)cc12 [Example 251, 5-(2-((cyclohexylamino)methyl)-1H-pyrrolo[2,3-b]339yridine-4-yl)-1H-indazol-3-amine]",74
14,"Nc1n[nH]c2ccc(-c3ccnc4[nH]c(CN5CCCCCC5)cc34)cc12 [Example 265, 5-(2-(Azepan-1-ylmethyl)-1H-pyrrolo[2,3-b]pyridine-4-yl)-1H-indazol-3-amine]",91
15,"Nc1n[nH]c2ccc(-c3ccnc4[nH]c(CN5CCC(F)(F)CC5)cc34)cc12 [Example 261, 5-(2-((4,4-Difluoropiperidin-1-yl)methyl)-1H-pyrrolo[2,3-b]pyridine-4-yl)-1H-indazol-3-amine]",49
16,"Nc1n[nH]c2ccc(-c3ccnc4[nH]c(CCC5CCCCC5)cc34)cc12 [Example 222, 5-(2-(2-Cyclohexylethyl)-1H-pyrrolo[2,3-b]pyridin-4-yl)-1H-indazol-3-amine]",19
17,"CC(C)N(C)Cc1cc2c(-c3ccc4[nH]nc(N)c4c3)ccnc2[nH]1 [Example 259, 5-(2-((Isopropyl(methyl)amino)methyl)-1H-pyrrolo[2,3-b]pyridine-4-yl)-1H-indazol-3-amine]",110
18,"Nc1n[nH]c2ccc(-c3ccnc4[nH]c(CCCN5CCCCC5)cc34)cc12 [Example 269, 5-(2-(3-(Piperidin-1-yl)propyl)-1H-pyrrolo[2,3-b]pyridin-4-yl)-1H-indazol-3-amine]",11
19,"Nc1n[nH]c2c(C#CC3CC3)cc(-c3ccnc4[nH]ccc34)cc12 [Example 202, 7-(Cyclopropylethynyl)-5-(1H-pyrrolo[2,3-b]pyridin-4-yl)-1H-indazol-3-amine]",13
20,"CC(C)(C)C#Cc1cc(-c2ccnc3[nH]ccc23)cc2c(N)n[nH]c12 [Example 201, 7-(3,3-Dimethylbut-1-yn-1-yl)-5-(1H-pyrrolo[2,3-b]pyridin-4-yl)-1H-indazol-3-amine]",62

# Same assay, conditions: non-italicised figure: DELFIA assay
row,SMILES,Ki [nM]
1,"CC(C)(N)C#Cc1c(-c2ccc3[nH]nc(N)c3c2)ccnc1N [Example 92, 5-(2-Amino-3-(3-amino-3-methylbut-1-yn-1-yl)pyridin-4-yl)-1H-indazol-3-amine]",7
2,"Nc1cc(-c2cc(-c3ccccc3)c3[nH]nc(N)c3c2)ccn1 [Example 104, 5-(2-Aminopyridin-4-yl)-7-phenyl-1H-indazol-3-amine]",54
3,"Nc1nccc(-c2ccc3[nH]nc(N)c3c2)c1C#CCCCN1CCOCC1 [Example 96, 5-(2-Amino-3-(5-morpholinopent-1-yn-1-yl)pyridin-4-yl)-1H-indazol-3-amine]",350
4,"Nc1cc(-c2cc(-c3ccoc3)c3[nH]nc(N)c3c2)ccn1 [Example 129, 5-(2-Aminopyridin-4-yl)-7-(furan-3-yl)-1H-indazol-3-amine]",10
5,"Nc1nccc(-c2ccc3[nH]nc(N)c3c2)c1C#CC1CCCCC1 [Example 74, 5-(2-Amino-3-(cyclohexylethynyl)pyridine-4-yl)-1H-indazol-3-amine]",12
6,"Nc1nccc(-c2ccc3[nH]nc(N)c3c2)c1C#CCCCN1CCCCC1 [Example 95, 5-(2-Amino-3-(5-(piperidin-1-yl)pent-1-yn-1-yl)pyridin-4-yl)-1H-indazol-3-amine]",91
7,"CC(C)(C)C#Cc1c(-c2ccc3[nH]nc(N)c3c2)ccnc1N [Example 72, 5-(2-Amino-3-(3,3-dimethylbut-1-yn-1-yl)pyridine-4-yl)-1H-indazol-3-amine]",6
8,"Nc1nccc(-c2ccc3[nH]nc(N)c3c2)c1C#Cc1ccccc1 [Example 75, 5-(2-Amino-3-(phenylethynyl)pyridine-4-yl)-1H-indazol-3-amine]",10
9,"Nc1nccc(-c2ccc3[nH]nc(N)c3c2)c1C#CC1(O)CCCCCC1 [Example 91, 1-((2-Amino-4-(3-amino-1H-indazol-5-yl)pyridine-3-yl)ethynyl)cycloheptan-1-ol]",105
10,"CC(C)(C)C#Cc1cc(-c2ccnc(N)c2)cc2c(N)n[nH]c12 [Example 137, 5-(2-Aminopyridin-4-yl)-7-(3,3-dimethylbut-1-yn-1-yl)-1H-indazol-3-amine]",53
11,"Nc1nccc(-c2ccc3[nH]nc(N)c3c2)c1C#CC1(O)CCCCC1 [Example 90, 1-((2-Amino-4-(3-amino-1H-indazol-5-yl)pyridine-3-yl)ethynyl)cyclohexan-1-ol]",36
12,"Nc1nccc(-c2ccc3[nH]nc(N)c3c2)c1C#CCCO [Example 84, 4-(2-Amino-4-(3-amino-1H-indazol-5-yl)pyridine-3-yl)but-3-yn-1-ol]",1
